In patent publication US9241928B2, “Antimicrobial compounds” (The General Hospital Corporation, priority 2009, dated 2016):

Columns and labels:
Assay type in all cases: in vivo, Caenorhabditis elegans
immune response genes = assay: qRT-PCR of immune response genes, PMK-1 dependence (overall); details: 20 μg/mL, N2 or pmk-1 mutant animals
Text: (§1) Caenorhabditis elegans strains were maintained on Escherichia coli OP50 as described in Brenner, Genetics, 1974, 77:71-94. Wildtype N2 nematodes carrying integrated transgenes acIs219 (AU78), acIs101(AY101), agIs17(AU133), or agIs26 (AU185) (see (1) Shivers, et al., PLoS. Genet. 2010, 6: e1000892, (2) Bolz et al., J. Biol. Chem. 2010, 285:10832-40, (3) Estes et al., Proc. Natl. Acad. Sci., 2010, 107:2153-8, and (4) Irazoqui et al., Proc. Natl. Acad. Sci., 2008, 105:17469-74) were used to assay the immunomodulatory activity of candidate compounds. For qRT-PCR experiments, RNA was extracted from synchronized young adult nematodes exposed to a candidate compound or DMSO (as a control) using TRI Reagent and reverse transcribed using the Retroscript kit (Ambion). This cDNA was then subjected to qRT-PCR analysis using SYBR green detection on a CFX1000 machine (Bio-Rad, http://www.bio-rad.com). Primers for qRT-PCR were obtained from published sequences (see Irazoqui et al., Proc. Natl. Acad. Sci., 2008, 105:17469-74 and Troemel et al., PLoS Genet. 2006, 2:e183). […] Fold change was calculated using the Pfaffl method (see Pfaffl et al., Nucleic Acids Res., 2001, 29:e45).
By using the assay described above, the inventors identified five compounds (i.e., Compounds 11, 18, 20, 25, and 26) that robustly and reproducibly activated the immune GFP reporters (see FIG. 5 and Table 3) or activated selected immune response genes as determined by quantitative RT-PCR analysis (see Table 4). For the latter experiments, RNA was isolated from wild-type C. elegans N2 or pmk-1 mutant animals exposed to the candidate immunomodulatory compounds at 20 μg/mL and from animals exposed to DMSO. The inventors tested several immune response genes in compound-exposed animals that are known to be regulated by PMK-1, the p38 Mitogen Acitvated Protein kinase homolog, an evolutionary-conserved, central regulator of nematode immunity. The inventors also used qRT-PCR to measure the activation of several immune response genes that are known to be activated independently of PMK-1. […]

irg-1 = assay: qRT-PCR of immune response gene expression; details: 20 μg/mL versus DMSO
Text: as §1
(§2) By using the assay described above, the inventors identified five compounds (i.e., Compounds 11, 18, 20, 25, and 26) that robustly and reproducibly activated the immune GFP reporters (see FIG. 5 and Table 3) or activated selected immune response genes as determined by quantitative RT-PCR analysis (see Table 4). For the latter experiments, RNA was isolated from wild-type C. elegans N2 or pmk-1 mutant animals exposed to the candidate immunomodulatory compounds at 20 μg/mL and from animals exposed to DMSO. The inventors tested several immune response genes in compound-exposed animals that are known to be regulated by PMK-1, the p38 Mitogen Acitvated Protein kinase homolog, an evolutionary-conserved, central regulator of nematode immunity. The inventors also used qRT-PCR to measure the activation of several immune response genes that are known to be activated independently of PMK-1. […] Thus, without wishing to be bound by theory, it is believed that a subset of the compounds identified in the screen for novel anti-infective compounds directly stimulate the immune response of the nematode and that these compounds act both by directly stimulating the PMK-1 pathway and by unidentified parallel immune response pathways.

C49G7.5 = assay: qRT-PCR of immune response gene expression; details: 20 μg/mL versus DMSO
Text: as §1, §2

F56D6.2 = assay: qRT-PCR of immune response gene expression; details: 20 μg/mL versus DMSO
Text: as §1, §2

F53E10.4 = assay: qRT-PCR of immune response gene expression; details: 20 μg/mL versus DMSO
Text: as §1, §2

C17H12.8 = assay: qRT-PCR of immune response gene expression; details: 20 μg/mL versus DMSO
Text: as §1, §2

T24B8.5 = assay: qRT-PCR of immune response gene expression; details: 20 μg/mL versus DMSO
Text: as §1, §2

F35E12.5 = assay: qRT-PCR of immune response gene expression; details: 20 μg/mL versus DMSO
Text: as §1, §2

T24B8.5::GFP = assay: Immune GFP reporter induction, transgene acIs219; details: compound-exposed versus DMSO-exposed animals, visual
Text: as §1
Without wishing to be bound by theory, it was hypothesized that a subset of these compounds cured nematode infection by directly activating the innate immune response of the animal. To test this hypothesis, a multi-faceted approach was used. First, the inventors studied four C. elegans strains in which the promoter of the nematode immune response genes T24B8.5, F35E12.5, irg-1 and clec-60 were individually fused to GFP, generating transgenes acIs219 (AU78), acIs101(AY101), agIs17(AU133), or agIs26 (AU185), respectively, thereby allowing a visual readout of gene activity in each strain. Using these reporter strains, the ability of 33 compounds previously shown to have anti-Enterococcal killing activity in the C. elegans infection assay (24 of which have been described above) were tested for their ability to modulate the nematode immune response.

F35E12.5::GFP = assay: Immune GFP reporter induction, transgene acIs101; details: compound-exposed versus DMSO-exposed animals, visual
Text: Caenorhabditis elegans strains were maintained on Escherichia coli OP50 as described in Brenner, Genetics, 1974, 77:71-94. Wildtype N2 nematodes carrying integrated transgenes acIs219 (AU78), acIs101(AY101), agIs17(AU133), or agIs26 (AU185) (see (1) Shivers, et al., PLoS. Genet. 2010, 6: e1000892, (2) Bolz et al., J. Biol. Chem. 2010, 285:10832-40, (3) Estes et al., Proc. Natl. Acad. Sci., 2010, 107:2153-8, and (4) Irazoqui et al., Proc. Natl. Acad. Sci., 2008, 105:17469-74) were used to assay the immunomodulatory activity of candidate compounds. […] Fold change was calculated using the Pfaffl method (see Pfaffl et al., Nucleic Acids Res., 2001, 29:e45).
Without wishing to be bound by theory, it was hypothesized that a subset of these compounds cured nematode infection by directly activating the innate immune response of the animal. […] First, the inventors studied four C. elegans strains in which the promoter of the nematode immune response genes T24B8.5, F35E12.5, irg-1 and clec-60 were individually fused to GFP, generating transgenes acIs219 (AU78), acIs101(AY101), agIs17(AU133), or agIs26 (AU185), respectively, thereby allowing a visual readout of gene activity in each strain. […]

| SMILES | PMK-1 dependence of immune response gene activation (immune response genes) | irg-1 expression, average fold-change (irg-1; genotype N2) | irg-1 expression, average fold-change (irg-1; genotype pmk-1(km25)) | C49G7.5 expression, average fold-change (C49G7.5; genotype N2) | C49G7.5 expression, average fold-change (C49G7.5; genotype pmk-1(km25)) | F56D6.2 expression, average fold-change (F56D6.2; genotype N2) | F56D6.2 expression, average fold-change (F56D6.2; genotype pmk-1(km25)) | F53E10.4 expression, average fold-change (F53E10.4; genotype N2) | F53E10.4 expression, average fold-change (F53E10.4; genotype pmk-1(km25)) | C17H12.8 expression, average fold-change (C17H12.8; genotype N2) | C17H12.8 expression, average fold-change (C17H12.8; genotype pmk-1(km25)) | T24B8.5 expression, average fold-change (T24B8.5; genotype N2) | T24B8.5 expression, average fold-change (T24B8.5; genotype pmk-1(km25)) | F35E12.5 expression, average fold-change (F35E12.5; genotype N2) | F35E12.5 expression, average fold-change (F35E12.5; genotype pmk-1(km25)) | immune reporter induction T24B8.5::GFP (T24B8.5::GFP) | immune reporter induction F35E12.5::GFP (F35E12.5::GFP) |
| --- | --- | --- | --- | --- | --- | --- | --- | --- | --- | --- | --- | --- | --- | --- | --- | --- | --- |
| NNc1ccc2c(Cl)cc(Cl)c(O)c2n1 [Compound 11] | preferentially activated PMK-1-dependent immune response genes | 1.7 fold-change | 4.7 fold-change | 0.9 fold-change | 2.5 fold-change | 15.1 fold-change | 1.4 fold-change | 1.0 fold-change | 1.7 fold-change | 18.0 fold-change | 1.1 fold-change | 57.0 fold-change | 3.2 fold-change | 20.23 fold-change | 6.7 fold-change | + | + |
| Cc1ccc(Nc2nc(N)c3ccccc3n2)cc1Cl [Compound 26] | activated at least one immune response gene in the nematode in a manner independent of PMK-1 | 1.1 fold-change | 4.0 fold-change | 1.8 fold-change | 6.3 fold-change | 13.1 fold-change | 0.6 fold-change | 0.3 fold-change | 0.8 fold-change | 1.1 fold-change | 0.4 fold-change | 1.6 fold-change | 1.8 fold-change | 156.1 fold-change | 149.0 fold-change | + | + |
